Literature values in publication PMC4263960 (Pediatric blood & cancer, 2013).
Like-named read-outs stand apart in the source and are kept apart here.

Experiments:
[1] = test system: Ewing sarcoma patients; settings: cited from earlier work
[2] = test system: pediatric preclinical xenograft models; settings: cited from earlier work
[3] = test system: neuroblastoma in children; settings: 45 children with neuroblastoma; cited from earlier work
[4] = test system: pediatric solid tumors; settings: cited from earlier work
[5] = test system: recurrent solid tumors in children; settings: cited from earlier work

Which “patients with a partial response” value [1] does the source give for `CC[C@]1(O)C[C@H]2CN(CCc3c([nH]c4ccccc34)[C@@](C(=O)OC)(c3cc4c(cc3OC)N(C=O)[C@H]3[C@@](O)(C(=O)OC)[C@H](OC(C)=O)[C@]5(CC)C=CCN6CC[C@]43[C@@H]65)C2)C1` [vincristine] here?
Its value is “one of seven”.

With `COc1ccc(S(=O)(=O)Nc2cccnc2Nc2ccc(O)cc2)cc1` [ABT-751] as the compound, how does the “preclinical models with regression” value ([2]; all models) read?
Its value is 4 of 25.

What about the “preclinical models with regression” value ([2]; neuroblastoma models refractory to vincristine and paclitaxel) of the same compound?
The value was 2 of 4.

What about the objective responses [3] of the same compound?
The objective responses was “absence of objective responses”.

For `CCC1=C[C@@H]2CN(C1)Cc1c([nH]c3ccccc13)[C@@](C(=O)OC)(c1cc3c(cc1OC)N(C)[C@H]1[C@@](O)(C(=O)OC)[C@H](OC(C)=O)[C@]4(CC)C=CCN5CC[C@]31[C@@H]54)C2` [vinorelbine], which “patients with objective responses” value ([4]; Ewing sarcomas) is on record?
Its value is “one of seven”.

And the “patients with objective responses” value ([4]; osteosarcomas)?
Its value is “one of five”.

And the “patients with objective responses” value ([4]; rhabdomyosarcoma)?
The value was 6 of 12.

And the “patients with objective responses” value ([5]; astrocytoma)?
The value was 1 of 4.

And the “patients with objective responses” value ([5]; eight children with neuroblastoma)?
The value was “no responses”.

And the “patients with objective responses” value ([5]; medulloblastoma)?
Its value is 1 of 2.

And the “patients with objective responses” value ([5]; nine patients with non-rhabdomyosarcoma soft tissue sarcoma)?
The value was “no responses”.

And the “patients with objective responses” value ([5]; rhabdomyosarcoma)?
The value was 4 of 11.
